Values of other authors, collected in US20070031352A1, “Powdery preparations containing diethylamino-hydroxybenzoyl-hexyl-benzoate” (BASF Aktiengesellschaft, priority 2003, published 2007).

Conditions: at 354 nm

CCCCCCOC(=O)c1ccccc1C(=O)c1ccc(N(CC)CC)cc1O [Uvinul® A Plus, diethylamino hydroxybenzoyl hexyl benzoate]
absorbance coefficient: 940
